# Measured values taken from US20250206828A1, “ANTI-ADENOSINE RECEPTOR (A2aR) ANTIBODIES AND THE USE THEREOF” (Adept Therapeutics Inc., priority 2022, published 2025).
# Where a chain is given by its changes, count along the chain named.
# B1: 3F8-12E9 (antibody, from another filing, V domains shown)
# VH: QVQLQQPGTELVKPGAPVKLSCKASGFTFTRYWMNWVKQRPGRGLEWIGRIDPSDSETHYNHKFWGKATLTVDKSSSTAYIQLNSLTSEDSAVYYCLRSLYGKGDYWGQGTTLTVSS
# VL: DVLMTQTPLSLSVGLGDQASISCRSSQSIVHSNGNTYLEWYLQRPGQSPKLLIYKVSNRFSGVPDRFSGSGSGTDFTLKISRVEAEDLGVYYCYQGSHVPLTFGSGTKLEIK
# B2: 1B5-3D7 (antibody, from another filing, V domains shown)
# VH: B1 VH with A24T, Y32F, K38R, S54Y, H59Q, G66D, K67R, A79V, N84S, L97G
# VL: B1 VL with T7S, S12P, G14S, D75Y, K79R, V90I, Y94F, K108T, I111L
# Key:
# [1] = target: T1, human A2aR-expressing CHO cells (Homo sapiens, UniProt P29274); assay: pH-sensitive dye (Zenon pHrodo iFL RED) based internalization assay; assay type: cell-based; conditions: 24 hours
# T1 construct: expressed in transfected cells; host or cells: CHO
# Source text: The Invitrogen™ Zenon™ pHrodo™ iFL RED human IgG Labeling Reagents (Cat. Z25612) Z25612) is low-pH sensitive dye and was used to determine the internalizing properties of the exemplary anti-A2aR antibodies following manufacture's instruction. The internalization of antibodies coupled with the Zenon™ pHrodo™ iFL RED human IgG Labeling reagents increase the fluorescence signal at low pH intracellular compartment in a cell, providing a method for visualizing internalization under fluorescent microscopy.
# Twenty-five microliters (25 μL) of 4× working solution of Zenon™ pHrodo™ iFL IgG Labeling Reagent were also prepared in freestyle CHO expression medium and then added to each well of a 96-well plate containing antibodies. The solutions in the 96-well plate were mixed and incubated for 5 minutes at room temperature to allow the labeling complexes to form. Afterwards, fifty microliters (50 μl) of 2×10^6/ml human A2aR-expressing CHO cells were added to each well containing labeled antibodies. Cells were then incubated with the labeling complex for 24 hours under standard cell culture conditions. Cells were analyzed under immunofluorescent microscope (Invitrogen EVOS cell imaging system M5000) to visualize the internalization of antibodies by cells. Internalization of antibody was imaged using EVOS imaging systems (Invitrogen).
# [2] = tested on: human PBMCs (CD4 T, CD8 T, NK cells); assay: Restoration of IFN-γ and IL-2 production of NECA-suppressed T cells and NK cells (intracellular cytokine staining); assay type: cell-based; conditions: NECA
# Protocol: (§1) Two hundred thousand (2×10^5) human peripheral blood mononuclear cells (PBMCs) human PBMC in complete IMDM medium were aliquoted into each well in a 96-well plate and the cells in the 96-well plate were pre-incubated with antibodies or small molecule inhibitors at indicated concentration for 90 minutes, followed by addition of T cell activator anti-CD3/28 dynabeads (Gibco, Cat #11132D) at ratio of 1:4 (Beads: PBMC, v/v) and NECA (DiscoverX, Cat #92-1191, final concentration […]). Cells were cultured in an incubator at 37° C., 5% CO2 for 24 hours. Cells were then collected and stimulated with anti-CD3/28 dynabeads in the presence of GolgiPlug™ Protein Transport Inhibitor (BD Biosciences, Cat #555028) according to manufacturer's manual for 4 hours. Thereafter, cells were incubated with human TruStain FcX block (Biolegend, Cat #422302) and True-Stain monocyte blocker (Biolegend, Cat #426103) for 15 minutes according the manufacturer's manual, and cells were then stained with surface markers PE-anti-CD4 (Biolegend, Cat #300550), PerCP-cy5.5-anti-CD8 (Biolegend, Cat #301032), APC/cy7-anti-CD3 (Biolegend, Cat #300426) and PE/cy7-anti-CD56 (Biolegend, Cat #362509), PE/cy7-anti-CD56 (Biolegend, Cat #362509), BV711-anti-CD25 (Biolegend, Cat #302636) and BV605-anti-CD69 (Biolegend, Cat #31938 After wash with FACS buffer, cells were stained with BV421-anti-IFN-γ (BD Bioscience, Cat #562988) and APC anti-IL-2 (BD Bioscience, cat #551383) using intracellular cytokine staining kit (BD Biosciences, cat #555028) following manufacturer's instruction. Stained samples were analyzed on FACSAria III machine. Data were analyzed using Flowjo software.
# [3] = tested on: human PBMCs (CD4 and CD8 T cells); assay: Restoration of CD25 and CD69 activation markers on NECA-suppressed CD4 and CD8 T cells; assay type: cell-based
# Protocol: as §1
# [4] = target: cynomolgus adenosine A2A receptor (A2aR) (cynomolgus); assay: flow cytometry on PBMC, donor Cynomolgus 2, isotype control
# [5] = target: T2, human adenosine A2A receptor (A2aR) (human, UniProt P29274 1-412); assay: flow cytometry on PBMC, donor human 2, isotype control
# [6] = target: T2, human adenosine A2A receptor (A2aR); assay: flow cytometry on PBMC, donor human 1, isotype control
# [7] = target: cynomolgus adenosine A2A receptor (A2aR) (cynomolgus); assay: flow cytometry on PBMC, donor Cynomolgus 1, isotype control
# [8] = target: T2, human adenosine A2A receptor (A2aR); assay: cell-based or functional assay
# [9] = target: T2, human adenosine A2A receptor (A2aR); assay: flow cytometry titration, HEK293-hA2aR cells, purified antibody
# [10] = target: T2, human adenosine A2A receptor (A2aR); assay: flow cytometry, HEK293-hA2aR cells, supernatant 1 ug/ml, average of quadruplicate
# [11] = target: T2, human adenosine A2A receptor (A2aR); assay: flow cytometry, HEK293-hA2aR cells, supernatant 1 ug/ml, average of triplicate
# T2 sequence (P29274 whole entry): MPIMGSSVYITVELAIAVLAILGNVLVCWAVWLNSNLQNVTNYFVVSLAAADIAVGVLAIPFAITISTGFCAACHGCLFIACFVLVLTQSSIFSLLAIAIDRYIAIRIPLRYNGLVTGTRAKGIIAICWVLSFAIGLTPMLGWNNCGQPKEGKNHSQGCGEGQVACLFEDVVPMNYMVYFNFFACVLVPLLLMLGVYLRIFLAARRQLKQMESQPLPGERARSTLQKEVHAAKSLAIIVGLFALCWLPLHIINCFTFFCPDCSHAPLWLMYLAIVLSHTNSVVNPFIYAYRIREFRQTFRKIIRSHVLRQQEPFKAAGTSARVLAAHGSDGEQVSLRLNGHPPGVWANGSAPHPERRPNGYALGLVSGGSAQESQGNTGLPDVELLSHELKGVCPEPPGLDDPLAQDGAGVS
# T1 sequence (P29274 whole entry): as above
molecule,measurement,setting,value
Cc1ccc(-c2nc(N)nc3c2nnn3Cc2cccc(CO[C@H]3CCOC3)n2)o1 [CPI-444],"induction of internalization (pHrodo fluorescence microscopy, FIG. 3)",[1],did not induce internalization
same,"% of cells IFNγ+, CD4 T cells",[2]; test substance 2 μg/ml,3.66%
same,"% of cells IFNγ+, CD8 T cells",[2]; test substance 2 μg/ml,11.6%
same,"% of cells IFNγ+, NK cells",[2]; test substance 2 μg/ml,15.1%
same,"% of cells IL-2+, CD4 T cells",[2]; test substance 2 μg/ml,12.7%
same,"% of cells IL-2+, CD8 T cells",[2]; test substance 2 μg/ml,3.05%
same,"% of cells CD25+, CD4 T cells",[3]; test substance 2 μg/ml,62.9%
same,"% of cells CD25+, CD8 T cells",[3]; test substance 2 μg/ml,35.9%
same,"% of cells CD69+, CD4 T cells",[3]; test substance 2 μg/ml,52.3%
same,"% of cells CD69+, CD8 T cells",[3]; test substance 2 μg/ml,52.3%
Anti-HEL isotype control (BioIntron) (antibody),% of A2aR+ CD4+ T cells,[4],0.099%
same,% of A2aR+ CD8+ T cells,[4],0.007%
same,% of A2aR+ NK cells,[4],0.42%
same,% of A2aR+ NKT cells,[4],0.045%
same,% of A2aR+ CD4+ T cells,[5],0.012%
same,% of A2aR+ CD8+ T cells,[5],0.002%
same,% of A2aR+ NK cells,[5],0.029%
same,% of A2aR+ NKT cells,[5],0.058%
same,% of A2aR+ CD4+ T cells,[6],0.083%
same,% of A2aR+ CD8+ T cells,[6],0.005%
same,% of A2aR+ NK cells,[6],0.21%
same,% of A2aR+ NKT cells,[6],0.11%
same,% of A2aR+ CD4+ T cells,[7],0.086%
same,% of A2aR+ CD8+ T cells,[7],0.009%
same,% of A2aR+ NK cells,[7],0.46%
same,% of A2aR+ NKT cells,[7],0.22%
Cc1c(C#N)cccc1-c1cc(-c2cn(Cc3cccc(C(C)(C)O)n3)nn2)nc(N)n1 [AB928],"induction of internalization (pHrodo fluorescence microscopy, FIG. 3)",[1],did not induce internalization
same,"% of cells IFNγ+, CD4 T cells",[2]; test substance 1 μg/ml,4.07%
same,"% of cells IFNγ+, CD8 T cells",[2]; test substance 1 μg/ml,14.4%
same,"% of cells IFNγ+, NK cells",[2]; test substance 1 μg/ml,15%
same,"% of cells IL-2+, CD4 T cells",[2]; test substance 1 μg/ml,13.1%
same,"% of cells IL-2+, CD8 T cells",[2]; test substance 1 μg/ml,3.15%
same,"% of cells CD25+, CD4 T cells",[3]; test substance 1 μg/ml,59.7%
same,"% of cells CD25+, CD8 T cells",[3]; test substance 1 μg/ml,32.7%
same,"% of cells CD69+, CD4 T cells",[3]; test substance 1 μg/ml,57.6%
same,"% of cells CD69+, CD8 T cells",[3]; test substance 1 μg/ml,55.3%
B1,"IC50 of blocking activity, cAMP-Glo, 300 nM NECA, HEK293-hA2aR cells, supernatant (average of triplicate)",[8],1 nM
same,EC50,[9],0.48 nM
same,MFI,[10],1920 MFI
B2,MFI,[11],1960 MFI
